Among the test systems are HCC-2998 colon; NCI-H460 lung; NCI-H226 lung; OVCAR-5 ovarian; HCT-15 colon; HT29 colon; SN12C renal; HOP-62 NSCLC; SW-620 colon; UO-31 renal.
Common to all, as to test: NCI-60 cell line screen, 48 h

Where “and” joins values, the source holds several entries; their conditions need not be identical. Identical values can stand only once.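 Cultured in 96-well plates, cells were exposed to test compound for 48 hours across five concentrations. Abbreviation: GI50, concentration required for 50% inhibition of growth. TGI marks complete inhibition of growth.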

For the molecule `Cc1nc(-c2cn3c(n2)-c2ccc(-c4cnn(C(C)(C)C(N)=O)c4)cc2OCC3)n(C(C)C)n1`, the GI50 was 0.895 µM and 0.295 µM in the experiment with HCC-2998 colon; 0.111 µM and 0.169 µM in the experiment on NCI-H460 lung; 3.98 µM and 2.87 µM with NCI-H226 lung; 0.17 µM and 0.976 µM in the experiment on OVCAR-5 ovarian; 0.219 µM and 0.314 µM in the experiment with HCT-15 colon; 0.0225 µM and 0.0401 µM in the experiment on HT29 colon. Moreover, the GI50 in the experiment on SN12C renal was 1.54 µM and 1.04 µM; in the experiment on HOP-62 NSCLC, 0.726 µM and 4.51 µM; in the experiment on SW-620 colon, 8.08 µM and 3.48 µM; with UO-31 renal, 0.185 µM and 0.14 µM. Besides, the TGI is 17.2 µM and > 10 µM in the experiment with HCC-2998 colon; greater than 100 µM with NCI-H460 lung; 97.4 µM and > 10 µM in the experiment on NCI-H226 lung; 32.3 µM and > 10 µM in the experiment with OVCAR-5 ovarian; 39.9 µM and > 10 µM in the experiment on HCT-15 colon; 17.1 µM and > 10 µM in the experiment on HT29 colon. Also, the TGI in the experiment on SN12C renal is greater than 100 µM; in the experiment on HOP-62 NSCLC, 60.4 µM and > 10 µM; with SW-620 colon, greater than 100 µM; with UO-31 renal, 15.3 µM and > 8.44 µM.
For the molecule `NCCCCCCCn1c2c(c3ccccc3c1=O)C(=O)c1ccccc1-2`, the GI50 in the experiment on HCC-2998 colon is 2.69 µM; in the experiment on NCI-H460 lung it was 0.478 µM; in the experiment on NCI-H226 lung it was 8.37 µM; in the experiment on OVCAR-5 ovarian, 1.7 µM; in the experiment with HCT-15 colon, 1.53 µM; in the experiment on HT29 colon it was 1.29 µM. In addition, the GI50 in the experiment on SN12C renal is 1.94 µM; in the experiment with HOP-62 NSCLC, 1.36 µM; with SW-620 colon it was 1.14 µM; in the experiment on UO-31 renal it was 1.29 µM. Moreover, the TGI came to 7.56 µM with HCC-2998 colon; 2.59 µM in the experiment on NCI-H460 lung; 22.2 µM in the experiment on NCI-H226 lung; 3.97 µM in the experiment on OVCAR-5 ovarian; 5.2 µM in the experiment with HCT-15 colon; 2.6 µM in the experiment on HT29 colon. For the same molecule, the TGI was 5.84 µM with SN12C renal, 2.73 µM in the experiment on HOP-62 NSCLC, 2.42 µM in the experiment on SW-620 colon and 2.73 µM in the experiment with UO-31 renal.
For `N=c1ccn(O)cc1/C=C1/C(=O)Nc2ccccc21`, the GI50 with HCC-2998 colon, with NCI-H460 lung, with NCI-H226 lung, with OVCAR-5 ovarian, in the experiment on HCT-15 colon and in the experiment with HT29 colon was greater than 100 µM each time. For the same molecule, the GI50 with SN12C renal, in the experiment on HOP-62 NSCLC, in the experiment on SW-620 colon and in the experiment with UO-31 renal was greater than 100 µM each time. The TGI with HCC-2998 colon, in the experiment on NCI-H460 lung, in the experiment on NCI-H226 lung, in the experiment on OVCAR-5 ovarian, in the experiment on HCT-15 colon and in the experiment on HT29 colon was greater than 100 µM each time. For the same molecule, the TGI in the experiment with SN12C renal, in the experiment on HOP-62 NSCLC, with SW-620 colon and in the experiment on UO-31 renal was greater than 100 µM throughout.
Turning to `[N-]=[N+]=NCCCCCC(=O)OC(C(=O)c1ccccc1)c1cccc(OCC(=O)NCCOCCOCCNC(=O)CCCC[C@@H]2SC[C@@H]3NC(=O)N[C@@H]32)c1` (stereo not given in full), the GI50 in the experiment with HCC-2998 colon was 39.6 µM; with NCI-H460 lung it was greater than 100 µM; with NCI-H226 lung, greater than 100 µM; with OVCAR-5 ovarian, greater than 100 µM; in the experiment with HCT-15 colon, greater than 100 µM; in the experiment with HT29 colon it was greater than 100 µM. Also, the GI50 with SN12C renal, in the experiment on HOP-62 NSCLC, in the experiment on SW-620 colon and in the experiment on UO-31 renal was greater than 100 µM each time. Further, the TGI in the experiment with HCC-2998 colon, with NCI-H460 lung, in the experiment on NCI-H226 lung, with OVCAR-5 ovarian, with HCT-15 colon and in the experiment with HT29 colon was greater than 100 µM throughout. The TGI in the experiment with SN12C renal, in the experiment with HOP-62 NSCLC, in the experiment with SW-620 colon and with UO-31 renal was greater than 100 µM each time.
